Results as given in US11731944B2, “SARS-CoV-2 inhibitors for treating coronavirus infections” (priority 2021, dated 2023).

These molecules were tested against SARS-CoV-2 MPRO (Severe acute respiratory syndrome coronavirus 2 (2019-nCoV) (SARS-CoV-2), UniProt P0DTD1) (assay: SARS-CoV-2 Mpro enzymatic assay (FRET substrate cleavage)). Conditions: C-His6-tagged SARS-CoV-2 MPRO 25 nM, 30 min pre-incubation at RT, 60 min at 30° C., 10 doses from 25 μM; read-out: M pro IC50.
Type: biochemical

Compared with `C[C@@](C(=O)NC1CCOCC1)(c1cncnc1)N(C(=O)[C@H](F)Cl)c1ccc(S(F)(F)(F)(F)F)cc1` [Example 23b], `C[C@@](C(=O)NC1CCOCC1)(c1cncc(F)c1)N(C(=O)[C@H](F)Cl)c1ccc(S(F)(F)(F)(F)F)cc1` [Example 97b] is higher in IC50: < 100 nM for the first, > 10000 nM for the second.

First: C[C@@](C(=O)NC1CCC(F)(F)CC1)(c1cncnc1)N(C(=O)[C@H](F)Cl)c1ccc2c(c1)OC(F)(F)O2 [Example 113b]
Second: C[C@@](C(=O)NC1CCC(F)(F)CC1)(c1cncnc1)N(C(=O)[C@H](F)Cl)c1ccc(SC(F)(F)F)cc1 [Example 33b]
The IC50 of the first is higher: > 10000 nM for the first, 100 to 1000 nM for the second.

`C[C@](C(=O)NC1CCC(F)(F)CC1)(c1cncc(F)c1)N(C(=O)[C@H](F)Cl)c1ccc(OC(F)(F)Cl)cc1` [Example 99a] and `C[C@](C(=O)NC1CCC(F)(F)CC1)(c1cncc(F)c1)N(C(=O)[C@H](F)Cl)c1ccc(SC(F)(F)F)cc1` [Example 95a] cannot be ordered by IC50: < 100 nM for the first, < 100 nM for the second.

Compared with `C[C@](C(=O)NC1CCC(F)(F)CC1)(c1cncnc1)N(C(=O)[C@H](F)Cl)c1ccc(C2(C(F)(F)F)CC2)cc1` [Example 28a], `C[C@@](C(=O)NC1CCC(F)(F)CC1)(c1cncnc1)N(C(=O)[C@H](F)Cl)c1ccc(C2(C(F)(F)F)CC2)cc1` [Example 28b] is higher in IC50: < 100 nM for the first, > 10000 nM for the second. The first is the more potent here.

`C[C@@](C(=O)NC1CCC(F)(F)CC1)(c1cncnc1)N(C(=O)[C@H](F)Cl)c1ccc(-c2ccno2)cc1` [Example 2b] and `C[C@@](C(=O)NC1CCC(F)(F)CC1)(c1cncnc1)N(C(=O)[C@H](F)Cl)c1ccc(-c2cncs2)cc1` [Example 1b] fall in the same range of IC50: 1000 to 10000 nM for the first, 1000 to 10000 nM for the second.

Compared with `C[C@](C(=O)NC1CCOCC1)(c1cncnc1)N(C(=O)[C@H](F)Cl)c1ccc(OC(F)(F)F)cc1` [Example 5a], `C[C@@](C(=O)NC1CCOC1)(c1cncnc1)N(C(=O)[C@H](F)Cl)c1ccc(OC(F)(F)F)cc1` (single isomer, unassigned) [Example 6d] is higher in IC50: < 100 nM for the first, > 10000 nM for the second. The first is the more potent here.

First: C[C@@](C(=O)NC1CCOCC1)(c1cncc(F)c1)N(C(=O)[C@H](F)Cl)c1ccc(-c2nccs2)cc1 [Example 103b]
Second: C[C@@](C(=O)NC1CCC(F)(F)CC1)(c1cncc(F)c1)N(C(=O)[C@H](F)Cl)c1ccc(-c2nccs2)cc1 [Example 102b]
The IC50 of the first is higher: > 10000 nM for the first, 100 to 1000 nM for the second.

First: C[C@](C(=O)NC1CCC(F)(F)CC1)(c1cncnc1)N(C(=O)[C@H](F)Cl)c1ccc(OC(F)(F)C(F)(F)F)cc1 [Example 90a]
Second: C[C@@](C(=O)NC1CCC(F)(F)CC1)(c1cncnc1)N(C(=O)[C@H](F)Cl)c1ccc(OC(F)(F)C(F)(F)F)cc1 [Example 90b]
The IC50 of the first is lower: < 100 nM for the first, 100 to 1000 nM for the second. The first is the more potent here.

`C[C@](C(=O)NC1CCC(F)(F)CC1)(c1cncnc1)N(C(=O)[C@H](F)Cl)c1ccc(-c2cncs2)cc1` (single isomer, unassigned) [Example 1a] and `C[C@](C(=O)NC1CCC2(CC1)COC2)(c1cncnc1)N(C(=O)[C@H](F)Cl)c1ccc(OC(F)(F)F)cc1` [Example 107a] cannot be ordered by IC50: < 100 nM for the first, < 100 nM for the second.

Compared with `C[C@@](C(=O)NCCc1cccc(F)c1)(c1cncnc1)N(C(=O)[C@H](F)Cl)c1ccc(OC(F)(F)F)cc1` [Example 36b], `C[C@](C(=O)NC1CCOCC1)(c1cncc(F)c1)N(C(=O)[C@H](F)Cl)c1ccc(OC(F)(F)F)cc1` [Example 14a] is lower in IC50: > 10000 nM for the first, < 100 nM for the second. The second is the more potent here.

Compared with `C[C@](C(=O)NC1CCOCC1)(c1cncc(F)c1)N(C(=O)[C@H](F)Cl)c1ccc(S(F)(F)(F)(F)F)cc1` [Example 97a], `C[C@@](C(=O)NC1CCOCC1)(c1cncc(F)c1)N(C(=O)[C@H](F)Cl)c1ccc(OC(F)(F)F)cc1` [Example 14b] is higher in IC50: < 100 nM for the first, > 10000 nM for the second. The first is the more potent here.

First: C[C@](C(=O)NC1CCOCC1)(c1cncnc1)N(C(=O)[C@H](F)Cl)c1ccc(C(F)(F)C(F)(F)F)cc1 [Example 108a]
Second: C[C@@](C(=O)NC1CCOCC1)(c1cncnc1)N(C(=O)C(Cl)Cl)c1ccc(OC(F)(F)Cl)cc1 [Example 115b]
The IC50 of the first is lower: 100 to 1000 nM for the first, 1000 to 10000 nM for the second. The first is the more potent here.

In the case of `C[C@](C(=O)NC1CCOCC1)(c1cncc(F)c1)N(C(=O)[C@H](F)Cl)c1ccc(OC(F)(F)Cl)cc1` [Example 98a], the IC50 is reported as < 100 nM.

Same assay, conditions: M pro IC50, C-His6-tagged SARS-CoV-2 MPRO 25 nM, 30 min pre-incubation at RT, 60 min at 30° C., 10 doses from 25 μM

First: C[C@@](C(=O)NC1CCC(F)(F)CC1)(c1cncc(F)c1)N(C(=O)[C@H](F)Cl)c1ccc(OC(F)(F)F)cc1 [Example 11b]
Second: C[C@](C(=O)NC1CCC(F)(F)CC1)(c1cncnc1)N(C(=O)[C@H](F)Cl)c1ccc(SC(F)(F)F)cc1 (single isomer, unassigned) [Example 33a]
The IC50 of the first is higher: 1000 to 10000 nM for the first, < 100 nM for the second. The second is the more potent here.

Compared with `CC1(C)COCC[C@@H]1NC(=O)[C@](C)(c1cncnc1)N(C(=O)[C@H](F)Cl)c1ccc(OC(F)(F)F)cc1` (single isomer, unassigned) [Example 76d], `C[C@](C(=O)NC1CCOCC1)(c1cncnc1)N(C(=O)[C@H](F)Cl)c1ccc(OC(F)(F)C(F)(F)F)cc1` [Example 32a] is lower in IC50: > 10000 nM for the first, < 100 nM for the second. The second is the more potent here.

Each molecule was assayed on SARS-CoV-2 (assay: In vitro antiviral cell-based assay (live SARS-CoV-2), plaque reduction assay in VeroE6 cells). Conditions: Severe acute respiratory syndrome coronavirus 2, Vero C1008, footnote key printed as IC50 (nM).

Molecule `C[C@](C(=O)NC1CCC(F)(F)CC1)(c1cncnc1)N(C(=O)[C@H](F)Cl)c1ccc(-c2cncs2)cc1` (single isomer, unassigned) [Example 1a] has an EC50 of 100 to 1000 nM.
